Data published in article doi:10.1101/2024.08.13.607785v1 (biorxiv, 2024).
Read-outs that look alike come from different tables or passages of the source. Each block holds one compound with its values, some of them ahead of it.

Assays:
Assay in all cases: biochemical
Parameters in all cases: species or system human cell line lysate
[1] = biological target: Isoform 3 of Serine/threonine-protein kinase MARK1 ; MARK1 ; Q9P0L2-3 (Homo sapiens, UniProt Q9P0L2)
[2] = biological target: T1, Dual specificity mitogen-activated protein kinase kinase 5 ; MAP2K5 ; Q13163 (Homo sapiens, UniProt Q13163)
T1 sequence (Q13163 1-448): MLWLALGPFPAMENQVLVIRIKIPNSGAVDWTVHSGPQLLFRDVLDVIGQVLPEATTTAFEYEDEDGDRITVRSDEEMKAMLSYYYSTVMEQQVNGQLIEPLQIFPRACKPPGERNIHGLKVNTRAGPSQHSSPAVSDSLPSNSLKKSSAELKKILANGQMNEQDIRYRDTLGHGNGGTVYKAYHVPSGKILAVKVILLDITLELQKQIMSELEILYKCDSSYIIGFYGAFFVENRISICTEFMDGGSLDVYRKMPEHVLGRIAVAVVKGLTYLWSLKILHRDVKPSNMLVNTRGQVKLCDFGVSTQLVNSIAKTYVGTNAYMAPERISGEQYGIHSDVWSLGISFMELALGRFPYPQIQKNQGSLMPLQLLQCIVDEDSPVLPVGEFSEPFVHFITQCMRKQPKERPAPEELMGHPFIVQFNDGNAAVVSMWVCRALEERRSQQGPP

[3] = biological target: Tyrosine-protein kinase SYK ; SYK ; P43405 (Homo sapiens, UniProt P43405)
[4] = biological target: Beta-adrenergic receptor kinase 1 ; GRK2 ; P25098 (Homo sapiens, UniProt P25098)
Beta-adrenergic receptor kinase 1 ; GRK2 ; P25098, sequence (P25098 whole entry): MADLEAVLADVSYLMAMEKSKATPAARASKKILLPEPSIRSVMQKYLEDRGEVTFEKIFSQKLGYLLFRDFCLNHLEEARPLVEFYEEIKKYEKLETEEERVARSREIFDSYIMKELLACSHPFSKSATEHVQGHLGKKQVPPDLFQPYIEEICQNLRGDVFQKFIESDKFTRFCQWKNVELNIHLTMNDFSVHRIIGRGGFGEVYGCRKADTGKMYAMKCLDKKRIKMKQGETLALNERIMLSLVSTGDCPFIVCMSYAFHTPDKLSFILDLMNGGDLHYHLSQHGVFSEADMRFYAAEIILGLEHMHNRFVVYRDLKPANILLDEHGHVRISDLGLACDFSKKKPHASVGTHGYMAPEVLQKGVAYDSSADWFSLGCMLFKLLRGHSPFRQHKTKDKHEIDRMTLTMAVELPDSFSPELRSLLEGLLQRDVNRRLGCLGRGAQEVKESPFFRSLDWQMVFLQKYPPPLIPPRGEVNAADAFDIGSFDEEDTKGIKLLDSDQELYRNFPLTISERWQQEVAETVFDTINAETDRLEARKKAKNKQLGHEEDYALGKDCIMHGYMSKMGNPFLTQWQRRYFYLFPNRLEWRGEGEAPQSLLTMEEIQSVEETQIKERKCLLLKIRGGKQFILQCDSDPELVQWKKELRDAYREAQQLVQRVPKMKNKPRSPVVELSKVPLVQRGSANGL

[5] = biological target: Dual specificity protein kinase CLK4 ; CLK4 ; Q9HAZ1 (Homo sapiens, UniProt Q9HAZ1)
Dual specificity protein kinase CLK4 ; CLK4 ; Q9HAZ1, sequence (Q9HAZ1 whole entry): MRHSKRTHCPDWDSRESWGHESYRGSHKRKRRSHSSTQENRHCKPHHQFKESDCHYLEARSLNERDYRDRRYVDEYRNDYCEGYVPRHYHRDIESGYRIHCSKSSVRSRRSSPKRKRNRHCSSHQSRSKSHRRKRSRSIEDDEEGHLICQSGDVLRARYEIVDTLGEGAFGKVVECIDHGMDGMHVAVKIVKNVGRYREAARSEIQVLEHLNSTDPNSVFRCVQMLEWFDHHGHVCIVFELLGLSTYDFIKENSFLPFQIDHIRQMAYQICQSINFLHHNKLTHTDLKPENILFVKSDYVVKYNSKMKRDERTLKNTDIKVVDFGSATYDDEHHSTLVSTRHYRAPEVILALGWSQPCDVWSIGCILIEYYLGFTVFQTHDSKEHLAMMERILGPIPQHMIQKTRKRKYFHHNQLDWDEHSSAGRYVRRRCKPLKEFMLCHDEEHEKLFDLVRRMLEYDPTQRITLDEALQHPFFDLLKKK

[6] = biological target: Serine-protein kinase ATM ; ATM ; Q13315 (Homo sapiens, UniProt Q13315)
[7] = biological target: SNF-related serine/threonine-protein kinase ; SNRK ; Q9NRH2 (Homo sapiens, UniProt Q9NRH2)
SNF-related serine/threonine-protein kinase ; SNRK ; Q9NRH2, sequence (Q9NRH2 whole entry, one chain of several): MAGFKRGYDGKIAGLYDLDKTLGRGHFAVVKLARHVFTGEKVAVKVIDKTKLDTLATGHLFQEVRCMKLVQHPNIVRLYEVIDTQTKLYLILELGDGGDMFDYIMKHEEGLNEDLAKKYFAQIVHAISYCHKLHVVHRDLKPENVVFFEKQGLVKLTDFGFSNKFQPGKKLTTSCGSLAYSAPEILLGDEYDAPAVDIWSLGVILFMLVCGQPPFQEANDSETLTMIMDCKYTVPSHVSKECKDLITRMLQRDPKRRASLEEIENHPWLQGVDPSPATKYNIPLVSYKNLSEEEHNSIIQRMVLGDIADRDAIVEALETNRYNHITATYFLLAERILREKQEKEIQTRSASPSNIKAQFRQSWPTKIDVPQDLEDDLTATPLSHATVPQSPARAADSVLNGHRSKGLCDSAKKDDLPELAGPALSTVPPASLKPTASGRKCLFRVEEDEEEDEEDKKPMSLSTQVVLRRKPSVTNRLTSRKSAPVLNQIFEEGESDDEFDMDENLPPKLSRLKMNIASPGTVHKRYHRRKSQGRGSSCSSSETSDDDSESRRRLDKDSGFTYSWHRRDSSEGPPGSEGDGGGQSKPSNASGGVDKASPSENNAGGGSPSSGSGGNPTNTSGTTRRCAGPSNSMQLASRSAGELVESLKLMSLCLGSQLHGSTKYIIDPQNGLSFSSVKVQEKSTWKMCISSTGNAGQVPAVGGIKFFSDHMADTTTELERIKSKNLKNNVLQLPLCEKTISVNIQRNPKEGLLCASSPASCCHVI

[8] = biological target: TGF-beta receptor type-1 ; TGFBR1 ; P36897 (Homo sapiens, UniProt P36897)
[9] = biological target: Mitogen-activated protein kinase kinase kinase 3 ; MAP3K3 ; Q99759 (Homo sapiens, UniProt Q99759)
[10] = biological target: MAP kinase-activated protein kinase 2 ; MAPKAPK2 ; P49137 (Homo sapiens, UniProt P49137)
[11] = biological target: RAC-beta serine/threonine-protein kinase ; AKT2 ; P31751 (Homo sapiens, UniProt P31751)
RAC-beta serine/threonine-protein kinase ; AKT2 ; P31751, sequence (P31751 whole entry, one chain of several): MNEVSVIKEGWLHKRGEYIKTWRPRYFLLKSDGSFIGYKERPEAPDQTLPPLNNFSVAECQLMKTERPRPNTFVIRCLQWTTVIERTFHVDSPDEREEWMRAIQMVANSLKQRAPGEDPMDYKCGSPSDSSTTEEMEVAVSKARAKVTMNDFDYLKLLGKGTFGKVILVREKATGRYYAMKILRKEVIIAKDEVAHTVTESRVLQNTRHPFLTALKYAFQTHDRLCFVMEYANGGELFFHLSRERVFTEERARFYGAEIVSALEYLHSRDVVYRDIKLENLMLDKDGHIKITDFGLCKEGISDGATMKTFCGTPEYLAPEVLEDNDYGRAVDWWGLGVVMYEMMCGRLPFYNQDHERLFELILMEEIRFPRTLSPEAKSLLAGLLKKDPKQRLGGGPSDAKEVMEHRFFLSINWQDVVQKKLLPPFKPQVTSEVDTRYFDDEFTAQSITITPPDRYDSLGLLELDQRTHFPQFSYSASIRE

[12] = biological target: Kinase suppressor of Ras 1 ; KSR1 ; Q8IVT5 (Homo sapiens, UniProt Q8IVT5)
[13] = biological target: Isoform 2 of Focal adhesion kinase 1 ; PTK2 ; Q05397-2 (Homo sapiens, UniProt Q05397)
Isoform 2 of Focal adhesion kinase 1 ; PTK2 ; Q05397-2, sequence (Q05397 whole entry, canonical isoform): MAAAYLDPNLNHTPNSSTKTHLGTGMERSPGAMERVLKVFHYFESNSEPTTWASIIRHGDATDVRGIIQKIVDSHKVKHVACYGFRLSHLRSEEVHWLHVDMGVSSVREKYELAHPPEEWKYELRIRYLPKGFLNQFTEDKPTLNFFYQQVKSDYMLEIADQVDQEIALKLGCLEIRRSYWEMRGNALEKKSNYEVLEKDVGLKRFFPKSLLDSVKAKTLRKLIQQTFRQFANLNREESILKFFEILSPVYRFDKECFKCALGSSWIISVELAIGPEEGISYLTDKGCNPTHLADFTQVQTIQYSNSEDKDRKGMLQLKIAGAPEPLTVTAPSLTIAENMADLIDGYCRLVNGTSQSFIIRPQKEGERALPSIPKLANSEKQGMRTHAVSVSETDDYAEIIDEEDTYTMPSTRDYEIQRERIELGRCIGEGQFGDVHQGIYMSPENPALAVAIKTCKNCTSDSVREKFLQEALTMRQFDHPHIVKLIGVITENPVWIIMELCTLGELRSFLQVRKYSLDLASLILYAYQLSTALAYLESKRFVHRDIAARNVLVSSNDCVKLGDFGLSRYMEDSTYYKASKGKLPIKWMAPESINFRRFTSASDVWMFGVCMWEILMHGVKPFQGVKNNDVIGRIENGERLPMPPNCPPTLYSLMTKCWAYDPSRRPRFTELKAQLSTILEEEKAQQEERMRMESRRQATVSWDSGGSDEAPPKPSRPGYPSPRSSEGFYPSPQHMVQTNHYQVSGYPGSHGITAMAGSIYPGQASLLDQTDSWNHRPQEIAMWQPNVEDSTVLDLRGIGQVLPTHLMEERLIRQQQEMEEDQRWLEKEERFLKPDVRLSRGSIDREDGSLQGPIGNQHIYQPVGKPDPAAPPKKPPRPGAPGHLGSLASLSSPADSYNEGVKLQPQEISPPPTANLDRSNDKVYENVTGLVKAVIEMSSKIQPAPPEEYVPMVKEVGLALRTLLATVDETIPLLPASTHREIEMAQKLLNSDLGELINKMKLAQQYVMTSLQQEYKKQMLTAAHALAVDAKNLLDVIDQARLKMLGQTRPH

[14] = biological target: Serine/threonine-protein kinase TAO2 ; TAOK2 ; Q9UL54 (Homo sapiens, UniProt Q9UL54)
[15] = biological target: Proto-oncogene tyrosine-protein kinase receptor Ret ; RET ; P07949 (Homo sapiens, UniProt P07949)
[16] = biological target: Mitogen-activated protein kinase kinase kinase 9 ; MAP3K9 ; P80192 (Homo sapiens, UniProt P80192)
[17] = biological target: cAMP-dependent protein kinase catalytic subunit beta ; PRKACB ; P22694 (Homo sapiens, UniProt P22694)
[18] = biological target: Mitogen-activated protein kinase kinase kinase kinase 3 ; MAP4K3 ; Q8IVH8 (Homo sapiens, UniProt Q8IVH8)
[19] = biological target: Serine/threonine-protein kinase pim-1 ; PIM1 ; P11309 (Homo sapiens, UniProt P11309)
Serine/threonine-protein kinase pim-1 ; PIM1 ; P11309, sequence (P11309 whole entry, one chain of several): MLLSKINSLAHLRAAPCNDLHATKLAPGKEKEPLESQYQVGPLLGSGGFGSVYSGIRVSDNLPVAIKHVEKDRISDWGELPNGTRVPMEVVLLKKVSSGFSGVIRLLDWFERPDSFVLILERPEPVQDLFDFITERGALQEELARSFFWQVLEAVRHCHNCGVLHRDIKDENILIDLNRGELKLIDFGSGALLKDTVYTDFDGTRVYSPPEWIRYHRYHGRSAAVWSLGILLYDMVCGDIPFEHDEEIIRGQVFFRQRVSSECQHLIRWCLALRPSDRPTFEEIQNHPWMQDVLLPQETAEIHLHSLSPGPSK

[20] = biological target: Casein kinase II subunit alpha ; CSNK2A1 ; P68400 (Homo sapiens, UniProt P68400)
Casein kinase II subunit alpha ; CSNK2A1 ; P68400, sequence (P68400 whole entry, one chain of several): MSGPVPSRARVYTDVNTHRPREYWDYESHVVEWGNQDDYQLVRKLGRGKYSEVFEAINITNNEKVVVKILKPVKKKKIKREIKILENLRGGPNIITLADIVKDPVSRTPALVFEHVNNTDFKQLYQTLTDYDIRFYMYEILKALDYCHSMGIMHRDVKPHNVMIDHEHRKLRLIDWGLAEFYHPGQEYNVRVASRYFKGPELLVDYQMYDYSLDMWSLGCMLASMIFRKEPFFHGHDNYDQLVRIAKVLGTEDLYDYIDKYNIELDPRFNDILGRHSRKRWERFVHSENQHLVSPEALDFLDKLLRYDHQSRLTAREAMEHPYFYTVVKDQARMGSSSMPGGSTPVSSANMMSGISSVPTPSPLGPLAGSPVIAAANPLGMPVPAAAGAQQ

[21] = read-out: BAY-1251152 (10 µM) / %Intensity relative to DMSO
[22] = read-out: BAY-1143572 (10 µM) / %Intensity relative to DMSO

Isoform 3 of Serine/threonine-protein kinase MARK1 ; MARK1 ; Q9P0L2-3, sequence (Q9P0L2 whole entry, canonical isoform, one chain of several): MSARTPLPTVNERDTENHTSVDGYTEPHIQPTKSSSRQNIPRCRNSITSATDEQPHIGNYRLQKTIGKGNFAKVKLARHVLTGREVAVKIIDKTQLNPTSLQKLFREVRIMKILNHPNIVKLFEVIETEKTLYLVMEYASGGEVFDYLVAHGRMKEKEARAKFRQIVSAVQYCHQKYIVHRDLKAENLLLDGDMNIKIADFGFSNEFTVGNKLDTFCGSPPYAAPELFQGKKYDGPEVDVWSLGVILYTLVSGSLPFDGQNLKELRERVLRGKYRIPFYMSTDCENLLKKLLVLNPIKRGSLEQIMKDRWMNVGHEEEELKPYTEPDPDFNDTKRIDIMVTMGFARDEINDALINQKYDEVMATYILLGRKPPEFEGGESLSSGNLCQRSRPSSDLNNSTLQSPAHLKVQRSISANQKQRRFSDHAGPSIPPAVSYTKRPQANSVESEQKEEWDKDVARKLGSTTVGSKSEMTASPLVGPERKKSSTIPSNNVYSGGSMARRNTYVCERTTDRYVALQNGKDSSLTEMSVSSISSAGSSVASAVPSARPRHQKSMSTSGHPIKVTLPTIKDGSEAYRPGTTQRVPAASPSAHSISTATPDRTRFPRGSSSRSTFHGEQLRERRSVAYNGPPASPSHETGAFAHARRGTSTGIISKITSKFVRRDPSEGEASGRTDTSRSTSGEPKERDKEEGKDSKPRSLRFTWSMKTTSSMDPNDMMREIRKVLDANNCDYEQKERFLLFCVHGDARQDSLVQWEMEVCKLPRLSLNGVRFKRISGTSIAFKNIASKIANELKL

- remaining activity at 10 µM [1, 21]: 84.7%
- remaining activity at 10 µM [2, 21]: 101%
- remaining activity at 10 µM [3, 21]: 94%
- remaining activity at 10 µM [4, 21]: 131%
- remaining activity at 10 µM [5, 21]: 133%
- remaining activity at 10 µM [6, 21]: 115%
- remaining activity at 10 µM [7, 21]: 147%
- remaining activity at 10 µM [8, 21]: 114%
- remaining activity at 10 µM [9, 21]: 114%
- remaining activity at 10 µM [10, 21]: 119%
- remaining activity at 10 µM [11, 21]: 119%
- remaining activity at 10 µM [12, 21]: 146%
- remaining activity at 10 µM [13, 21]: 85%
- remaining activity at 10 µM [14, 21]: 56%
- remaining activity at 10 µM [15, 21]: 87.9%
- remaining activity at 10 µM [16, 21]: 104%
- remaining activity at 10 µM [17, 21]: 105%
- remaining activity at 10 µM [18, 21]: 106%
- remaining activity at 10 µM [19, 21]: 110%
- remaining activity at 10 µM [20, 21]: 105%
SMILES: COc1cc(F)ccc1-c1cc(Nc2cc(CS(C)(=N)=O)ccn2)ncc1F (stereo not shown) [BAY-1251152]

- remaining activity at 10 µM [1, 22]: 80.9%
- remaining activity at 10 µM [2, 22]: 102%
- remaining activity at 10 µM [3, 22]: 106%
- remaining activity at 10 µM [4, 22]: 142%
- remaining activity at 10 µM [5, 22]: 141%
- remaining activity at 10 µM [6, 22]: 110%
- remaining activity at 10 µM [7, 22]: 191%
- remaining activity at 10 µM [8, 22]: 115%
- remaining activity at 10 µM [9, 22]: 120%
- remaining activity at 10 µM [10, 22]: 128%
- remaining activity at 10 µM [11, 22]: 117%
- remaining activity at 10 µM [12, 22]: 131%
- remaining activity at 10 µM [13, 22]: 80.9%
- remaining activity at 10 µM [14, 22]: 80.7%
- remaining activity at 10 µM [15, 22]: 97%
- remaining activity at 10 µM [16, 22]: 87.2%
- remaining activity at 10 µM [17, 22]: 111%
- remaining activity at 10 µM [18, 22]: 109%
- remaining activity at 10 µM [19, 22]: 124%
- remaining activity at 10 µM [20, 22]: 110%
SMILES: COc1cc(F)ccc1-c1ncnc(Nc2cccc(C[S@](C)(=N)=O)c2)n1 [BAY-1143572]
